Laboratory results from US20050148523A1, “Method of treating HIV infection in atazanavir-resistant patients using a combination of atazanavir and another protease inhibitor” (priority 2003, published 2005).
Like-named read-outs stand apart in the source and are kept apart here.

Columns and labels:
[1] = tested on: clinical isolates containing a D30N substitution; experiment: PhenoSense phenotypic susceptibility of clinical isolates containing D30N; type: cell-based, HIV-1; details: 75 D30N containing isolates, FIG. 3
Method: Drug Susceptibility Assays. Clinical isolates were subjected to phenotypic (PhenoSense™) and genotypic (GeneSeq™) analysis by Virologic, Inc. as described elsewhere.
Comparative Studies of I50L and D30N Containing Viruses. […] Comparative studies were performed on the 18 phenotyped viruses containing an I50L and 75 clinical isolates containing a D30N substitution without evidence of cross-resistance (FC≧2.5) to other PIs.

[2] = tested on: recombinant HIV-1 viruses (NL4-3, RF, LAI) in MT-2 cells; experiment: MT-2 cell susceptibility assay of recombinant viruses; type: cell-based
Method: Cells and Viruses. MT-2 cells, HIV-1 RF, HIV1-LAI, and the HIV-1 NL4-3 proviral clones were obtained through the AIDS Research and Reference Reagent Program, National Institutes of Health. MT-2 cells were cultured in RPMI 1640 medium supplemented with 10% fetal bovine serum, 2 mM L-glutamine, and 10 mM Hepes buffer. HIV-1 viruses were generated by transient transfection of the proviral DNA into Human Embryonic Kidney 293 cells using Lipofectamine reagents (Gibco BRL). The viruses were harvested 72 hr post-transfection, amplified in MT-2 cells, and titered in the same cells using a virus yield assay.
Recombinant HIV-1 Variants and Chimeric NL4-3 Proviral Clones. HIV-1 strains with defined substitutions in the protease gene were generated by QuikChange® site-directed mutagenesis as recommended by the manufacturer (Stratagene). Recombinant NL4-3 and LAI proviral clones containing the wild-type and mutant protease genes from RF and clinical isolates were constructed by replacing the SseI/ApaI fragment of pNL4-3 with the appropriate SseI/ApaI protease fragments.
Recombinant viruses (generated separately from those made for PhenoSense assays) were tested in an MT-2 cell susceptibility assay at Bristol Myers Squibb. MT-2 cells were infected with recombinant viruses at a multiplicity of infection (MOI) of 0.005 50% tissue culture infective doses (TCID50)/cell followed by incubation in the presence or absence of serially diluted protease inhibitors for 4 to 7 days. Virus yields were quantified using a RT assay as previously described. The results from at least four independent experiments were used to calculate the EC50.

[3] = tested on: HIV-1 in treatment naive patients; experiment: Clinical study AI424-008/044, virological outcomes and resistance; type: in vivo, human; details: study 008/044
Source text: (§1) Study Population. Viral samples (baseline and on-treatment, where available) were obtained from patients who experienced virologic failure while enrolled in studies AI424-007/041 [12] (ATV+d4T and ddI), AI424-008/044 [13, 14] (ATV+d4T and 3TC) and AI424-034 [9] (ATV or EFV in combination with ZDV and 3TC). […] In general, virologic failure specimens were selected for further resistance evaluation only if they contained >1,000 copies/mL HIV-1 RNA and there was no indication that the specimen came from a patient at a time of transient non-adherence to study drug(s). […] For non-responders, samples from week 16 (or 24) were tested. Drug adherence was determined from pill counts of returned study medications at each scheduled visit.
(§2) ATV resistance was defined as ≧2-fold decrease in ATV susceptibility from baseline, a Fold Change (FC) of ≧2.5 (relative to the Nl4-3 reference strain), or evidence of an isoleucine (Ile) to leucine (Leu) change at amino acid residue 50 (I50L). Resistance levels for NFV and EFV were also defined as a FC reaching 2.5.

[4] = tested on: clinical isolates exhibiting a wide array of PI resistance profiles; details: cited from earlier work
HIV-1 protease = HIV-1 protease (Human immunodeficiency virus type 1 group M subtype B, UniProt P04585); details: cited from earlier work
[5] = tested on: HIV-1 in treatment naive patients; experiment: Clinical study AI424-007/041, virological outcomes and resistance; type: in vivo, human; details: study 007/041
Source text: as §1, §2

NL4-3 reference strain = experiment: PhenoSense phenotypic drug susceptibility assay, reference strain; type: cell-based, HIV-1; details: Human immunodeficiency virus 1, NL43; over the several months of sample testing; read-out: IC50 measured for the NL4-3 reference strain
Method: Drug Susceptibility Assays. Clinical isolates were subjected to phenotypic (PhenoSense™) and genotypic (GeneSeq™) analysis by Virologic, Inc. as described elsewhere. Over the time period (several months) in which the samples reported here were tested, the ATV IC50 measured for the NL4-3 reference strain ranged from 0.9-2.0 nM. The success rate in obtaining phenotype and genotype results from patients experiencing virologic failure ranged from 30 to 50%, largely because of low HIV RNA levels (the assays used required levels of >=500 c/mL), insufficient sample volume, or no sample was available.

[6] = tested on: HIV-1 in treatment naive patients on ATV containing regimens; experiment: Pooled resistance analysis of studies AI424-007/041, 008/044 and 034; type: in vivo, human; details: patients with I50L, N=10
Source text: as §1, §2

[7] = tested on: HIV-1 in treatment naive patients; experiment: Clinical study AI424-034, virological outcomes and resistance; type: in vivo, human; details: study 034
Source text: as §1, §2

COC(=O)N[C@H](C(=O)N[C@@H](Cc1ccccc1)[C@@H](O)CN(Cc1ccc(-c2ccccn2)cc1)NC(=O)[C@@H](NC(=O)OC)C(C)(C)C)C(C)(C)C [ATV, atazanavir]
median FC [1]: small median decreases in susceptibility
EC50 ([2]; Human immunodeficiency virus 1, NL43, MT2, LAI A71V, read-out: ATV phenotype (value before parenthesis, EC50)): 3.7 ± 0.9 nM
EC50 ([2]; Human immunodeficiency virus 1, NL43, MT2, LAI Control, read-out: ATV phenotype (value before parenthesis, EC50)): 1.5 ± 0.3 nM
EC50 ([2]; Human immunodeficiency virus 1, NL43, MT2, LAI I50L, read-out: ATV phenotype (value before parenthesis, EC50)): 8.2 ± 3.4 nM
EC50 ([2]; Human immunodeficiency virus 1, NL43, MT2, NL4-3 020: I50L + M46I, L63P, H69Q, V77I, I93L, read-out: ATV phenotype (value before parenthesis, EC50)): 1.9 ± 0.5 nM
EC50 ([2]; Human immunodeficiency virus 1, NL43, MT2, NL4-3 100A: I50L + L63P, K70R, A71V, N88S, read-out: ATV phenotype (value before parenthesis, EC50)): 22.9 ± 6.4 nM
EC50 ([2]; Human immunodeficiency virus 1, NL43, MT2, NL4-3 100B: I50L + L63P, K70R, A71V, G73S, read-out: ATV phenotype (value before parenthesis, EC50)): 27.8 ± 2.8 nM
EC50 ([2]; Human immunodeficiency virus 1, NL43, MT2, NL4-3 296: I50L + K45R, L63P, A71V, G73S, V77I, I93L, read-out: ATV phenotype (value before parenthesis, EC50)): 7.1 ± 1.6 nM
EC50 ([2]; Human immunodeficiency virus 1, NL43, MT2, NL4-3 347: I50L + I13V, E35D, M36I, M46L, L63P, A71V, V82A, read-out: ATV phenotype (value before parenthesis, EC50)): 12.1 ± 1.4 nM
EC50 ([2]; Human immunodeficiency virus 1, NL43, MT2, NL4-3 372: I50L + L10I, L63P, G73S, I93L, read-out: ATV phenotype (value before parenthesis, EC50)): 9.8 ± 0.7 nM
EC50 ([2]; Human immunodeficiency virus 1, NL43, MT2, NL4-3 398: I50L + E35D, M36L, N37S, R41K, R57K, I62V, L63P, I93L, read-out: ATV phenotype (value before parenthesis, EC50)): 9 ± 1.5 nM
EC50 ([2]; Human immunodeficiency virus 1, NL43, MT2, NL4-3 450: I50L + L19I, R41K, A71V, T74S, read-out: ATV phenotype (value before parenthesis, EC50)): 4.4 ± 2.9 nM
EC50 ([2]; Human immunodeficiency virus 1, NL43, MT2, NL4-3 A71V, read-out: ATV phenotype (value before parenthesis, EC50)): 2.4 ± 0.04 nM
EC50 ([2]; Human immunodeficiency virus 1, NL43, MT2, NL4-3 Control (first group), read-out: ATV phenotype (value before parenthesis, EC50)): 0.8 ± 0.3 nM
EC50 ([2]; Human immunodeficiency virus 1, NL43, MT2, NL4-3 I50L + A71V, read-out: ATV phenotype (value before parenthesis, EC50)): 8.6 ± 1.9 nM
EC50 ([2]; Human immunodeficiency virus 1, NL43, MT2, NL4-3 I50L, read-out: ATV phenotype (value before parenthesis, EC50)): 3.1 ± 1.6 nM
EC50 ([2]; Human immunodeficiency virus 1, NL43, MT2, RF A71V, read-out: ATV phenotype (value before parenthesis, EC50)): 0.6 ± 0.2 nM
EC50 ([2]; Human immunodeficiency virus 1, NL43, MT2, RF Control, read-out: ATV phenotype (value before parenthesis, EC50)): 0.7 ± 0.1 nM
EC50 ([2]; Human immunodeficiency virus 1, NL43, MT2, RF I50L + A71V, read-out: ATV phenotype (value before parenthesis, EC50)): 4 ± 0.3 nM
EC50 ([2]; Human immunodeficiency virus 1, NL43, MT2, RF I50L, read-out: ATV phenotype (value before parenthesis, EC50)): 2.2 ± 1.8 nM
EC50 ([2]; Human immunodeficiency virus 1, NL43, MT2, read-out: ATV phenotype (value before parenthesis, EC50), LAI 150L + A71V): 15.1 ± 4.7 nM
EC50 ([2]; Human immunodeficiency virus 1, NL43, MT2, read-out: ATV phenotype (value before parenthesis, EC50), NL4-3 Control (second group, site-directed mutants)): 1.5 ± 0.1 nM
ATV (Fold Change) ([2]; LAI 150L + A71V): 10 Fold Change
ATV (Fold Change) ([2]; LAI A71V): 2.4 Fold Change
ATV (Fold Change) ([2]; LAI I50L): 5.4 Fold Change
ATV (Fold Change) ([2]; NL4-3 020: I50L + M46I, L63P, H69Q, V77I, I93L): 2.5 Fold Change
ATV (Fold Change) ([2]; NL4-3 100A: I50L + L63P, K70R, A71V, N88S): 31 Fold Change
ATV (Fold Change) ([2]; NL4-3 100B: I50L + L63P, K70R, A71V, G73S): 37 Fold Change
ATV (Fold Change) ([2]; NL4-3 296: I50L + K45R, L63P, A71V, G73S, V77I, I93L): 9.5 Fold Change
ATV (Fold Change) ([2]; NL4-3 347: I50L + I13V, E35D, M36I, M46L, L63P, A71V, V82A): 16 Fold Change
ATV (Fold Change) ([2]; NL4-3 372: I50L + L10I, L63P, G73S, I93L): 13 Fold Change
ATV (Fold Change) ([2]; NL4-3 398: I50L + E35D, M36L, N37S, R41K, R57K, I62V, L63P, I93L): 12 Fold Change
ATV (Fold Change) ([2]; NL4-3 450: I50L + L19I, R41K, A71V, T74S): 5.9 Fold Change
ATV (Fold Change) ([2]; NL4-3 A71V): 1.6 Fold Change
ATV (Fold Change) ([2]; NL4-3 I50L): 2.1 Fold Change
ATV (Fold Change) ([2]; NL4-3 I50L + A71V): 5.9 Fold Change
ATV (Fold Change) ([2]; RF A71V): 0.9 Fold Change
ATV (Fold Change) ([2]; RF I50L): 3 Fold Change
ATV (Fold Change) ([2]; RF I50L + A71V): 5.7 Fold Change
decrease in susceptibility ([2]; {}): 2.1-5.4 fold
Virologic Failures (%) [3]: 24%
Virologic Failures, number [3]: 88
percentage of isolates remaining susceptible to ATV ([4]; isolates resistant to 1 PI): 88%
percentage of isolates remaining susceptible to ATV ([4]; isolates resistant to 2 PIs): 81%
percentage of isolates remaining susceptible to ATV ([4]; isolates resistant to 3 PIs): 34%
percentage of isolates remaining susceptible to ATV ([4]; isolates resistant to 4 PIs): 16%
percentage of isolates remaining susceptible to ATV ([4]; isolates resistant to 5 PIs): 5%
Ki (HIV-1 protease): < 1 nM
Virologic Failures (%) [5]: 21%
Virologic Failures, number [5]: 51
IC50 (NL4-3 reference strain): 0.9 to 2 nM
mean time to virologic failure [6]: 50 weeks
Virologic Failures (%) [7]: 17%
Virologic Failures, number [7]: 69
